Laboratory results from the kinase profiling compilation of Christmann-Franck et al. (2016).

Assays:
Assay in all cases: KINOMEscan competition binding
AURKB (human) = AURKB (human) (UniProt Q96GD4); settings: compound 1.0 µM
MAPK4 (human) = MAPK4 (human) (UniProt P31152); settings: compound 1.0 µM
[1] = tested on: FLT3 (human), P36888 [K663Q]; settings: compound 1.0 µM
TNIK (human) = TNIK (human) (UniProt Q9UKE5); settings: compound 1.0 µM
CDK8 (human) = CDK8 (human) (UniProt P49336); settings: compound 1.0 µM
EPHA4 (human) = EPHA4 (human) (UniProt P54764); settings: compound 1.0 µM
NTRK3 (human) = NTRK3 (human) (UniProt Q16288); settings: compound 1.0 µM
AKT1 (human) = AKT1 (human) (UniProt P31749); settings: compound 1.0 µM
TIE1 (human) = TIE1 (human) (UniProt P35590); settings: compound 1.0 µM
MTOR (human) = MTOR (human) (UniProt P42345); settings: compound 1.0 µM
RPS6KA5 KD2 (human) = RPS6KA5 KD2 (human) (UniProt O75582); settings: compound 1.0 µM
FGFR4 (human) = FGFR4 (human) (UniProt P22455); settings: compound 1.0 µM
CAMK2B (human) = CAMK2B (human) (UniProt Q13554); settings: compound 1.0 µM
MAPK14 (human) = MAPK14 (human) (UniProt Q16539); settings: compound 1.0 µM
NEK1 (human) = NEK1 (human) (UniProt Q96PY6); settings: compound 1.0 µM
HIPK1 (human) = HIPK1 (human) (UniProt Q86Z02); settings: compound 1.0 µM
FLT4 (human) = FLT4 (human) (UniProt P35916); settings: compound 1.0 µM
PRKG1 (human) = PRKG1 (human) (UniProt Q13976); settings: compound 1.0 µM
FGFR1 (human) = FGFR1 (human) (UniProt P11362); settings: compound 1.0 µM
MAPK7 (human) = MAPK7 (human) (UniProt Q13164); settings: compound 1.0 µM
TSSK1B (human) = TSSK1B (human) (UniProt Q9BXA7); settings: compound 1.0 µM
CDKL2 (human) = CDKL2 (human) (UniProt Q92772); settings: compound 1.0 µM
ZAP70 (human) = ZAP70 (human) (UniProt P43403); settings: compound 1.0 µM
CSNK2A2 (human) = CSNK2A2 (human) (UniProt P19784); settings: compound 1.0 µM
STK17B (human) = STK17B (human) (UniProt O94768); settings: compound 1.0 µM
RPS6KB1 (human) = RPS6KB1 (human) (UniProt P23443); settings: compound 1.0 µM
FGFR3 (human) = FGFR3 (human) (UniProt P22607); settings: compound 1.0 µM
STK11 (human) = STK11 (human) (UniProt Q15831); settings: compound 1.0 µM
CSNK1G2 (human) = CSNK1G2 (human) (UniProt P78368); settings: compound 1.0 µM
RET (human) = RET (human) (UniProt P07949); settings: compound 1.0 µM
MAPK6 (human) = MAPK6 (human) (UniProt Q16659); settings: compound 1.0 µM
INSR (human) = INSR (human) (UniProt P06213); settings: compound 1.0 µM
CDK4 CCND1 (human) = CDK4 CCND1 (human) (UniProt P11802+P24385); settings: compound 1.0 µM
CSNK1D (human) = CSNK1D (human) (UniProt P48730); settings: compound 1.0 µM
CAMK2D (human) = CAMK2D (human) (UniProt Q13557); settings: compound 1.0 µM
[2] = tested on: EGFR (human), P00533 [G719C]; settings: compound 1.0 µM
CaMK1 (human) = CaMK1 (human) (UniProt Q14012); settings: compound 1.0 µM
BRSK1 (human) = BRSK1 (human) (UniProt Q8TDC3); settings: compound 1.0 µM
PRKD3 (human) = PRKD3 (human) (UniProt O94806)
MAP3K9 (human) = MAP3K9 (human) (UniProt P80192); settings: compound 1.0 µM
MAP3K12 (human) = MAP3K12 (human) (UniProt Q12852); settings: compound 1.0 µM
MAPKAPK5 (human) = MAPKAPK5 (human) (UniProt Q8IW41); settings: compound 1.0 µM

Sequence of PRKD3 (human) (O94806 whole entry, looked up): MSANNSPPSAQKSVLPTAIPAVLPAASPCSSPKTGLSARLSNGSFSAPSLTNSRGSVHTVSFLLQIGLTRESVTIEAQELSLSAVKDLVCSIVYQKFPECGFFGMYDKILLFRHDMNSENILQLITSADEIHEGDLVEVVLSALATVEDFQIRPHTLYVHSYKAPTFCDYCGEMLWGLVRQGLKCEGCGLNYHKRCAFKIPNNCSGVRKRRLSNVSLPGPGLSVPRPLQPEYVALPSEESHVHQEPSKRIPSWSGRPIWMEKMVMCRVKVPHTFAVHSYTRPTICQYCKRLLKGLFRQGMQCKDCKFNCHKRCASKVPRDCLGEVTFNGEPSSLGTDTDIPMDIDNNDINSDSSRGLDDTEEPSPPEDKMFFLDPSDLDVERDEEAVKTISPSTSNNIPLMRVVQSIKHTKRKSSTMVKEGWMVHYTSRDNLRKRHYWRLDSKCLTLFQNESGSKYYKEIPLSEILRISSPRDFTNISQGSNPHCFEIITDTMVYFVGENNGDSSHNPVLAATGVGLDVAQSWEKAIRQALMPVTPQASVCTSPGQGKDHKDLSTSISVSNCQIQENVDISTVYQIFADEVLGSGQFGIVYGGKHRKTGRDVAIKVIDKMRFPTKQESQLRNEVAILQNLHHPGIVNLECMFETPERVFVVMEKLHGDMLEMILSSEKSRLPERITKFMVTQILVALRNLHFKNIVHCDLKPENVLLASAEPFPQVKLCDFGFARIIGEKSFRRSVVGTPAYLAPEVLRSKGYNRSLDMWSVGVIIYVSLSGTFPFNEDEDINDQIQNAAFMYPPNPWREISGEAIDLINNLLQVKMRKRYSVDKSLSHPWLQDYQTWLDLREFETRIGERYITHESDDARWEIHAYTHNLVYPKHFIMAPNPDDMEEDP
Sequence of NEK1 (human) (Q96PY6 whole entry, looked up): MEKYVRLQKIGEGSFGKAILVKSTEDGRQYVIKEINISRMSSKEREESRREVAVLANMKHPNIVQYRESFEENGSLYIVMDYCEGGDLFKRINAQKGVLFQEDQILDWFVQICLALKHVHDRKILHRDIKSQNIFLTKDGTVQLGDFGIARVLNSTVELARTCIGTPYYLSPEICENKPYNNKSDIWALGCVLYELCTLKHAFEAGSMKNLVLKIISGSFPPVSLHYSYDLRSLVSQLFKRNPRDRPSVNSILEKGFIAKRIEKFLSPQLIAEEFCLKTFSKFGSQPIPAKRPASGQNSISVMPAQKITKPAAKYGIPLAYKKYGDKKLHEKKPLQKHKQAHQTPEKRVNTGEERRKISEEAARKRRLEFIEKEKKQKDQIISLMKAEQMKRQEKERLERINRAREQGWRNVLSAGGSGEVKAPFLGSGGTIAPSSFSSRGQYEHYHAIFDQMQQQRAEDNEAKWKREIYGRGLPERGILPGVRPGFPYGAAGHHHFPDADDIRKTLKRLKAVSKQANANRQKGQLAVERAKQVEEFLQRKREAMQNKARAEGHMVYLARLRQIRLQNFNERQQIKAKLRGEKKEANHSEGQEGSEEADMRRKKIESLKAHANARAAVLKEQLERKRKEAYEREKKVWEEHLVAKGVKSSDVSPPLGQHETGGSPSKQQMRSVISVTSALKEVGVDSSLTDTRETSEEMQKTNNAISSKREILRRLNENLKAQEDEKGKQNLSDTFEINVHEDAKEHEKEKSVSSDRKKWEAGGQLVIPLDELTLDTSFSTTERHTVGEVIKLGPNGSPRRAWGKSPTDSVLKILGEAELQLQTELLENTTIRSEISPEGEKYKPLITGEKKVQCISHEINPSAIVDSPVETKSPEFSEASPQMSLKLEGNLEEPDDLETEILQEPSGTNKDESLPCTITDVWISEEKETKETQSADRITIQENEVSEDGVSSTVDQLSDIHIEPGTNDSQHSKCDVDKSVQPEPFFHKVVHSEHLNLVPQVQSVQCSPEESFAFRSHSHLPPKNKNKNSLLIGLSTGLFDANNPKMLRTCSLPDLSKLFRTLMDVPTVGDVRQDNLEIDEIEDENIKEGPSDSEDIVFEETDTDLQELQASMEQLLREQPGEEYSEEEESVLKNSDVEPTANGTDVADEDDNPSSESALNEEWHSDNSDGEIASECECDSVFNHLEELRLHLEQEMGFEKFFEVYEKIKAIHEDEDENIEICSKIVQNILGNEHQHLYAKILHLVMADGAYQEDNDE
Sequence of INSR (human) (P06213 whole entry, looked up): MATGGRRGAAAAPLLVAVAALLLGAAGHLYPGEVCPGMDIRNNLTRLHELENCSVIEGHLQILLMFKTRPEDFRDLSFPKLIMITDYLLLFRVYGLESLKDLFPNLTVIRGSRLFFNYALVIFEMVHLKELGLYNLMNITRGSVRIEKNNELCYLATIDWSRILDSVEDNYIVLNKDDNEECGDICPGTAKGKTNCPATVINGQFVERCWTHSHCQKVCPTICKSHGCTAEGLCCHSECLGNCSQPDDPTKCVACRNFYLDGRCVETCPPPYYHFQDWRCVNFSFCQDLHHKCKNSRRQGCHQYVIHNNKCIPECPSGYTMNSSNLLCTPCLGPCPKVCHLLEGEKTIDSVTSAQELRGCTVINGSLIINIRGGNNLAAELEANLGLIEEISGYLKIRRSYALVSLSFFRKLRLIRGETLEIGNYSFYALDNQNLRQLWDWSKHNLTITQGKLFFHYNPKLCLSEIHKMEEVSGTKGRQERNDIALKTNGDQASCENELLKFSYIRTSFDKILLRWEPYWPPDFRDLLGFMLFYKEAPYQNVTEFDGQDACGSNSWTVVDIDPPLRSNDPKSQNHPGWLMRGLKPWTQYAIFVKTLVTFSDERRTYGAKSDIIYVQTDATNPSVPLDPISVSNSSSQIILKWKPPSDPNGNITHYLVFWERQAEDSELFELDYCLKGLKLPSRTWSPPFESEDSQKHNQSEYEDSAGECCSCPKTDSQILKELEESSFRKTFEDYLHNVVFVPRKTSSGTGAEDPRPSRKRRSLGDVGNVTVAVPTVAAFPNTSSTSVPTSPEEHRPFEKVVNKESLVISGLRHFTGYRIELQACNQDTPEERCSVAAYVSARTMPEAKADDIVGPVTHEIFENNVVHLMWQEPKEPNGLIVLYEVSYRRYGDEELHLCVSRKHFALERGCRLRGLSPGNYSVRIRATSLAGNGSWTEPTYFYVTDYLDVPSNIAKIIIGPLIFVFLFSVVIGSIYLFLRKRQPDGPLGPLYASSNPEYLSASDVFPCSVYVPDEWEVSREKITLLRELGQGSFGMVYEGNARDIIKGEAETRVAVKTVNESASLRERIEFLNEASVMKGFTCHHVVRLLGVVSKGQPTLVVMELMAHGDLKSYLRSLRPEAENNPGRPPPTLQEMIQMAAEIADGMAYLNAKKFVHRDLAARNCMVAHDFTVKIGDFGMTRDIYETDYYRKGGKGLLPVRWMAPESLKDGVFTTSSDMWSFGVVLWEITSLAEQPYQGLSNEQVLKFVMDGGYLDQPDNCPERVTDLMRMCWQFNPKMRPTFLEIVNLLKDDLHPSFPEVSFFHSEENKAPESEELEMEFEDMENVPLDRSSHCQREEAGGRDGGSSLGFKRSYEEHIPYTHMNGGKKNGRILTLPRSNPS
Sequence of BRSK1 (human) (Q8TDC3 whole entry, looked up): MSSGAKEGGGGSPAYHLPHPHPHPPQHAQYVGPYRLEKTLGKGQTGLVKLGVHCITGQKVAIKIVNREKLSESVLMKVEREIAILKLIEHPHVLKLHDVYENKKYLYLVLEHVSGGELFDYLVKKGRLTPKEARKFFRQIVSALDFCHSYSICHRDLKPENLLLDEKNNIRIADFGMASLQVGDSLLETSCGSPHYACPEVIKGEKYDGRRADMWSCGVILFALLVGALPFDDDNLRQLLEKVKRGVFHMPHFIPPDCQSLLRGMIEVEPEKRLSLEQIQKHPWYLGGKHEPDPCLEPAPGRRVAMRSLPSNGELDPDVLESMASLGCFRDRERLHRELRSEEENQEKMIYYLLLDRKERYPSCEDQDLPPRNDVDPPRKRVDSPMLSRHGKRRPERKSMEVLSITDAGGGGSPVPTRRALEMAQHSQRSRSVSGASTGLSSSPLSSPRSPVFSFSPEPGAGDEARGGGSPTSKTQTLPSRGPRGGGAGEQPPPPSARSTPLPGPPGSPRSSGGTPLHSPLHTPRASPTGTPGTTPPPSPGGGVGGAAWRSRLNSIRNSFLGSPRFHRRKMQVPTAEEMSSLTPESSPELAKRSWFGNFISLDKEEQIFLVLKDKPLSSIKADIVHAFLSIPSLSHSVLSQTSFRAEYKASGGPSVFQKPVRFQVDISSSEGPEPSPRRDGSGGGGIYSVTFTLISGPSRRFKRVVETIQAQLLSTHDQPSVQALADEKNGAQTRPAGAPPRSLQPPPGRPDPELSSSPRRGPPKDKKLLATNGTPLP
Sequence of CSNK1G2 (human) (P78368 whole entry, looked up): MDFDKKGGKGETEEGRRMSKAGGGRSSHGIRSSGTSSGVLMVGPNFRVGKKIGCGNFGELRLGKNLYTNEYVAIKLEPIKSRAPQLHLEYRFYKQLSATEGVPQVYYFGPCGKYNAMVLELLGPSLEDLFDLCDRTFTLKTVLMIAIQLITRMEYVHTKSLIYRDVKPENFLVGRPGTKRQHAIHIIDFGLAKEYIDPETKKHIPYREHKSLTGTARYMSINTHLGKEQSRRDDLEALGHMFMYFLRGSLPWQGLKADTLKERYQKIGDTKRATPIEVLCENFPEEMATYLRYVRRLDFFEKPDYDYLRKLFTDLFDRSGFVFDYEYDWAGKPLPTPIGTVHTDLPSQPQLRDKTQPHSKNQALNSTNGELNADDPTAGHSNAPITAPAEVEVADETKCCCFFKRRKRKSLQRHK
Sequence of MAPK14 (human) (Q16539 whole entry, looked up): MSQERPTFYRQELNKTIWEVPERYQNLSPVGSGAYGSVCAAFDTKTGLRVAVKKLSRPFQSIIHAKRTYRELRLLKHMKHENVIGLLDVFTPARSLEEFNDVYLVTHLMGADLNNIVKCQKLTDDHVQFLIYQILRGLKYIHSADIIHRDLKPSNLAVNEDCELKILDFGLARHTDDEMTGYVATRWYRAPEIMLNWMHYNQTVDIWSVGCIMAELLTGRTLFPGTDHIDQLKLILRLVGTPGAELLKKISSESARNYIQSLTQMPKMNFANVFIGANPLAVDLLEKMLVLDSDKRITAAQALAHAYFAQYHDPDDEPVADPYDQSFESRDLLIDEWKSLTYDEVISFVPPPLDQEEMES

CN(C)C/C=C/C(=O)Nc1cccc(C(=O)Nc2ccc(Nc3nccc(-c4c(-c5ccccc5)nn5ccccc45)n3)cc2)c1
kinase still bound, per cent of control (AURKB (human)): 85% | kinase still bound, per cent of control (MAPK4 (human)): 94% | kinase still bound, per cent of control [1]: 12% | kinase still bound, per cent of control (TNIK (human)): 27% | kinase still bound, per cent of control (CDK8 (human)): 100% | kinase still bound, per cent of control (EPHA4 (human)): 89% | kinase still bound, per cent of control (NTRK3 (human)): 84% | kinase still bound, per cent of control (AKT1 (human)): 100% | kinase still bound, per cent of control (TIE1 (human)): 23% | kinase still bound, per cent of control (MTOR (human)): 100% | kinase still bound, per cent of control (RPS6KA5 KD2 (human)): 97% | kinase still bound, per cent of control (FGFR4 (human)): 100% | kinase still bound, per cent of control (CAMK2B (human)): 100% | kinase still bound, per cent of control (MAPK14 (human)): 2.1% | kinase still bound, per cent of control (NEK1 (human)): 100% | kinase still bound, per cent of control (HIPK1 (human)): 100% | kinase still bound, per cent of control (FLT4 (human)): 7.8% | kinase still bound, per cent of control (PRKG1 (human)): 90% | kinase still bound, per cent of control (FGFR1 (human)): 80% | kinase still bound, per cent of control (MAPK7 (human)): 100% | kinase still bound, per cent of control (TSSK1B (human)): 86% | kinase still bound, per cent of control (CDKL2 (human)): 74% | kinase still bound, per cent of control (ZAP70 (human)): 96% | kinase still bound, per cent of control (CSNK2A2 (human)): 100% | kinase still bound, per cent of control (STK17B (human)): 100% | kinase still bound, per cent of control (RPS6KB1 (human)): 83% | kinase still bound, per cent of control (FGFR3 (human)): 100% | kinase still bound, per cent of control (STK11 (human)): 93% | kinase still bound, per cent of control (CSNK1G2 (human)): 0.85% | kinase still bound, per cent of control (RET (human)): 8.3% | kinase still bound, per cent of control (MAPK6 (human)): 71% | kinase still bound, per cent of control (INSR (human)): 100% | kinase still bound, per cent of control (CDK4 CCND1 (human)): 79% | kinase still bound, per cent of control (CSNK1D (human)): 3.1% | kinase still bound, per cent of control (CAMK2D (human)): 100% | kinase still bound, per cent of control [2]: 0.55% | kinase still bound, per cent of control (CaMK1 (human)): 100% | kinase still bound, per cent of control (BRSK1 (human)): 86% | Kd (PRKD3 (human)): 240 nM | kinase still bound, per cent of control (PRKD3 (human); compound 1.0 µM): 0% | kinase still bound, per cent of control (MAP3K9 (human)): 59% | kinase still bound, per cent of control (MAP3K12 (human)): 84% | kinase still bound, per cent of control (MAPKAPK5 (human)): 100%
